PubChem BioAssay (NCI)
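A five-concentration, 48-hour dose response in 96-well plates underlies each endpoint, interpolated linearly between surrounding concentrations. GI50 is the concentration that inhibits growth by half. At the TGI there is no net growth.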

Assays:
Test in all cases: DTP human tumour cell line panel, 48 h
RXF 393 renal = tested on: RXF 393 renal
IGROV1 ovarian = tested on: IGROV1 ovarian
NCI-H226 lung = tested on: NCI-H226 lung
ACHN renal = tested on: ACHN renal
TK-10 renal = tested on: TK-10 renal
MCF7 breast = tested on: MCF7 breast
OVCAR-3 ovarian = tested on: OVCAR-3 ovarian
HCT-15 colon = tested on: HCT-15 colon
NCI-H460 lung = tested on: NCI-H460 lung
MDA-MB-231 breast = tested on: MDA-MB-231 breast
T-47D breast = tested on: T-47D breast
SNB-75 CNS = tested on: SNB-75 CNS
MDA-MB-435 = tested on: MDA-MB-435
NCI/ADR-RES ovarian = tested on: NCI/ADR-RES ovarian
MOLT-4 leukemia = tested on: MOLT-4 leukemia
HOP-62 NSCLC = tested on: HOP-62 NSCLC
SF-295 CNS = tested on: SF-295 CNS
BT-549 breast = tested on: BT-549 breast

Row | Compound | TGI (RXF 393 renal) [µM] | TGI (IGROV1 ovarian) [µM] | TGI (NCI-H226 lung) [µM] | TGI (ACHN renal) [µM] | TGI (TK-10 renal) [µM] | TGI (MCF7 breast) [µM] | TGI (OVCAR-3 ovarian) [µM] | TGI (HCT-15 colon) [µM] | TGI (NCI-H460 lung) [µM] | TGI (MDA-MB-231 breast) [µM] | TGI (T-47D breast) [µM] | TGI (SNB-75 CNS) [µM] | TGI (MDA-MB-435) [µM] | TGI (NCI/ADR-RES ovarian) [µM] | TGI (MOLT-4 leukemia) [µM] | TGI (HOP-62 NSCLC) [µM] | TGI (SF-295 CNS) [µM] | TGI (BT-549 breast) [µM] | GI50 (OVCAR-3 ovarian) [µM] | GI50 (HOP-62 NSCLC) [µM]
1 | CC1(C)N=C(/C=N/O)C(C)(C)N1O | > 100 | > 100 | > 100 | > 100 | > 100 | > 100 | > 100 | > 100 | > 100 | > 100 | > 100 | > 100 | > 100 | > 100 | > 100 | > 100 | > 100 | – | – | –
2 | CCN(CC)CCSc1nc2c(c(=N)n1-c1ccccc1)c(=S)n(-c1ccccc1)c(=S)n2-c1ccccc1 | 2.78 | 3.24 | 50.4 | 3.16 | 3.17 | – | 3.07 | 4.35 | 3.86 | 3.73 | 9.03 | 5.52 | 3.77 | 52.5 | 2.33 | 8.32 | 30.1 | 5.98 | – | –
3 | CCc1n[nH]c(=O)n1NC(=O)c1ccccc1C(=O)O | > 100 | > 100 | – | > 100 | > 100 | > 100 | > 100 | > 100 | – | > 100 | – | > 100 | > 100 | > 100 | > 100 | > 100 | > 100 | > 100 | – | –
4 | CCn1c(-c2ccc(C)cc2)cs/c1=N\C(P(=O)(O)O)P(=O)(O)O | > 100 | > 100 | > 100 | > 100 | > 100 | > 100 | > 100 | > 100 | > 100 | > 100 | – | > 100 | > 100 | > 100 | > 100 | > 100 | > 100 | > 100 | – | –
5 | O=S(=O)(O)c1ccc2c(N=Nc3ccccc3Cl)c(O)ccc2c1 | > 100 | > 100 | – | > 100 | > 100 | – | > 100 | > 100 | – | > 100 | > 100 | > 100 | > 100 | > 100 | > 100 | > 100 | > 100 | > 100 | – | –
6 | O=C1OC[C@@H]2Cc3c([nH]c4ccccc34)[C@@H](c3cc(O)c(O)c(O)c3)N12 | 45.6 | 49.7 | 49.9 | > 100 | > 100 | 84.1 | – | > 100 | > 100 | 42.3 | > 100 | 60.9 | 25.9 | 72.3 | 85.9 | 67.8 | 34 | – | – | –
7 | O=C1CCCCC[C@]12SC[C@H]1CON=C12 | 77.1 | > 100 | > 100 | > 100 | > 100 | 82.4 | > 100 | > 100 | > 100 | – | – | – | 39.5 | 83.4 | > 100 | – | > 100 | > 100 | – | –
8 | COc1ccc2c(c1)CCCN1CCc3cc(OC)c(OC)cc3C21 (stereo not given) | – | > 100 | > 100 | > 100 | > 100 | > 100 | > 100 | > 100 | – | > 100 | > 100 | > 100 | > 100 | 56 | > 100 | > 100 | > 100 | 43.2 | – | –
9 | CC(=O)c1c(-c2ccccc2)c(-c2ccc(OCCN(C)C)cc2)n2ccccc12 | – | 33.3 | 38.3 | 29.2 | 32.1 | 32.3 | 32.8 | 22.7 | 26 | 31 | 37.8 | 27.9 | 35.3 | 33.9 | 48 | – | 30.9 | 30.3 | – | –
10 | CC(NC(=O)C(N)CC(=O)O)NC(=O)N1CCOCC1 (stereo not given) | > 100 | > 100 | > 100 | > 100 | > 100 | > 100 | > 100 | > 100 | > 100 | > 100 | – | > 100 | > 100 | > 100 | > 100 | > 100 | > 100 | > 100 | – | –
11 | Cc1cc(O)c(/C=N/c2nc(-c3cccc([N+](=O)[O-])c3)cs2)c(=O)o1 | – | > 100 | > 100 | > 100 | 26.6 | > 100 | > 100 | > 100 | > 100 | > 100 | > 100 | > 100 | > 100 | > 100 | – | > 100 | > 100 | 73.5 | – | –
12 | CC([C@H]1CCC2C3CCC4CC5(CC[C@]4(C)C3CC[C@@]21C)c1ccccc1C(=O)N5C)N(C)C (stereo not given in full) | > 100 | > 100 | – | > 100 | > 100 | – | > 100 | > 100 | > 100 | – | – | 74.1 | – | – | 91.7 | > 100 | 48.5 | – | – | –
13 | O=C1/C(=C/c2cccs2)NC(=S)N1CN1CCOCC1 | – | > 100 | > 100 | > 100 | > 100 | > 100 | > 100 | > 100 | – | > 100 | – | > 100 | > 100 | > 100 | > 100 | > 100 | > 100 | – | – | –
14 | Cc1ccc(O)c(-c2csc(NCN3CCN(CNc4nc(-c5cc(C)ccc5O)cs4)CC3)n2)c1 | > 100 | > 100 | > 100 | > 100 | > 100 | > 100 | > 100 | > 100 | > 100 | > 100 | – | > 100 | > 100 | > 100 | > 100 | > 100 | > 100 | > 100 | – | –
15 | O=C(NCCCCNCCCNC(=O)c1cc(-c2ccccc2)nc2ccccc12)c1cc(-c2ccccc2)nc2ccccc12 | 3.97 | 2.88 | 3.26 | 3.3 | 2.93 | 3.07 | 2.99 | 3.46 | 3.39 | – | – | – | 3.17 | 5.09 | – | 3.02 | 3.17 | 37.5 | – | –
16 | O=CC1OC(=O)c2cc(O)c(O)c(O)c2-c2c(cc(O)c(O)c2O)C(=O)OC1C(O)C(O)CO (stereo not given) | > 100 | > 100 | > 100 | > 100 | > 100 | 39.4 | > 100 | > 100 | > 100 | 35.8 | – | > 100 | 32.9 | > 100 | 56.8 | > 100 | 67.9 | > 100 | – | –
17 | COc1ccc(Nc2nc(N)c(C(=O)c3ccccc3)s2)cc1 | 24.2 | 37 | 29.5 | > 100 | > 100 | > 100 | > 100 | 26.2 | 19.9 | – | > 100 | 0.33 | > 100 | – | > 61.7 | > 100 | > 100 | > 84.5 | – | –
18 | CC(C)(C)OC(=O)Nc1cc(-c2ccccc2)co1 | – | > 100 | > 100 | > 100 | > 100 | > 100 | > 100 | > 100 | – | > 100 | > 100 | – | > 100 | > 100 | > 100 | > 100 | > 100 | > 100 | – | –
19 | C=Cc1cc2c(cc1O)CC[C@@H]1[C@@H]2CC[C@]2(C)[C@@H](O)CC[C@@H]12 | 8.92 | 19.3 | 30.7 | 21.1 | 38.3 | – | 8.74 | 28.8 | 21.1 | 18.7 | 36.2 | 24.4 | 4.29 | 5.3 | 14.5 | 19.8 | 10.5 | – | 2.57 | 5.04
20 | Fc1cc(-c2ncc(Cl)cc2Cl)c2cccccc1-2 | > 100 | > 100 | > 100 | > 100 | > 100 | > 100 | > 100 | > 100 | > 100 | > 100 | – | > 100 | – | > 100 | – | > 100 | > 100 | > 100 | – | –
21 | c1ccc(/N=C2\c3ccccc3CN2c2ccccn2)nc1 | > 100 | > 100 | > 100 | > 100 | > 100 | > 100 | > 100 | > 100 | > 100 | > 100 | 77.2 | > 100 | > 100 | – | > 100 | > 100 | > 100 | > 100 | – | –
22 | Cn1c2ccccc2n2c(=O)c3cccnc3c(C#N)c12 | > 100 | – | 30.1 | > 100 | > 100 | – | > 100 | > 100 | > 100 | > 100 | > 100 | > 100 | > 100 | > 100 | > 100 | > 100 | > 100 | > 100 | – | –
23 | Nc1nc(N)c2nnn(C[C@H]3CC[C@@H](CO)C3)c2n1 | > 100 | > 100 | > 100 | > 100 | > 100 | > 100 | > 100 | > 100 | > 100 | > 100 | – | > 100 | > 100 | > 100 | > 100 | > 100 | > 100 | > 100 | – | –
24 | CC(=O)O[C@H]1C(=O)[C@@]2(C)[C@H]([C@H](OC(=O)c3ccccc3)[C@]3(O)C[C@H](OC(=O)[C@H](O)[C@@H](NC(=O)CC(C)C)c4ccccc4)C(C)=C1C3(C)C)[C@]1(OC(C)=O)CO[C@@H]1C[C@@H]2O | – | > 10 | > 10 | > 10 | > 10 | > 10 | – | > 10 | > 10 | > 10 | > 10 | 0.0253 | – | > 10 | > 10 | > 10 | 0.508 | > 10 | – | –
25 | CC(Oc1ccc(OCC2CCCCC2)cc1)C(=O)O (stereo not given) | – | > 100 | > 100 | > 100 | > 100 | – | > 100 | > 100 | > 100 | – | – | > 100 | – | – | > 100 | – | > 100 | – | – | –
26 | S=C(c1c[nH]c2ccccc12)N1CCN(c2ccccc2)CC1 | > 100 | > 100 | > 100 | > 100 | > 100 | > 100 | > 100 | > 100 | > 100 | > 100 | – | 21.6 | > 100 | > 100 | > 100 | > 100 | > 100 | > 100 | – | –
27 | COc1ccc(CCc2ccc(O)c(C(=O)O)c2)cc1OC | > 100 | > 100 | > 100 | > 100 | > 100 | > 100 | > 100 | > 100 | > 100 | > 100 | > 100 | > 100 | > 100 | > 100 | > 100 | > 100 | > 100 | – | – | –
28 | O=C1CC(c2ccc[nH]2)=NN1c1ccccc1 | > 100 | – | > 100 | > 100 | > 100 | – | > 100 | > 100 | > 100 | > 100 | > 100 | > 100 | > 100 | > 100 | 85.5 | > 100 | > 100 | > 100 | – | –
29 | Nc1nc(N)c2nc(-c3ccco3)cnc2n1 | > 100 | > 100 | > 100 | > 100 | > 100 | – | > 100 | > 100 | > 100 | – | – | 80 | – | – | > 100 | > 100 | > 100 | – | – | –
